Results taken from patent EP0733369A1, “Protease inhibitors, a DNA construct for the expression of a protease and a process for measuring proteases and/or protease inhibitors” (Stichting REGA V.Z.W., priority 1995, dated 1996).
pIC50: −log10 of the molar value. “Also recorded” adds a separate entry of the source.

What was measured:
[1] = system: hyperacute experimental allergic encephalomyelitis (EAE); assay: acute (hyperacute) EAE in SJL mice; details: intraperitoneal, equivalent of 27 to 375 µg per mouse daily
Protocol: In both hind paws 50µl of this emulsion was injected on day 0. On day 0 and 2, 50µl B.pertussis (200x10^9 bacteria/ml) were injected intraveneously. […] The control group received injections with 0.9% NaCl, used as excipiens. The animals were daily monitored and the disease and mortality were scored.).

[2] = system: human monocytic cell line THP-1; assay: gelatinase B protein (zymography) and mRNA (northern blot) production in THP-1 cultures; format: cell-based; details: THP-1, LPS 1µg/ml, RA 100nM or untreated; D-penicillamine 50 µg/ml; 16 h
Protocol: Figure 14. […] Cultures of the human monocytic cell line THP-1 were stimulated with lipopolysaccharide (LPS, 1µg/ml), retinoic acid (RA, 100nM) or left untreated (CO) in the presence or absence of D-penicillamine (DPEN, 50 µg/ml). After 16 h total RNA was extracted and gelatinase B mRNA was measured by northern blot analysis with a human probe (41) (a). Gelatinase B protein in the cell culture fluids was assayed by zymographic analysis on gelatin substrate gels (b).

chronic relapsing EAE = chronic relapsing EAE in Biozzi AB/H mice; format: in vivo; details: 750 µg three times weekly from day 22 onwards
Gelatinase B [3] = molecular target: T1, Gelatinase B (Homo sapiens, UniProt P14780); assay: ID50 on homogeneous enzyme; format: biochemical
Target sequence in this assay (P14780 107-707): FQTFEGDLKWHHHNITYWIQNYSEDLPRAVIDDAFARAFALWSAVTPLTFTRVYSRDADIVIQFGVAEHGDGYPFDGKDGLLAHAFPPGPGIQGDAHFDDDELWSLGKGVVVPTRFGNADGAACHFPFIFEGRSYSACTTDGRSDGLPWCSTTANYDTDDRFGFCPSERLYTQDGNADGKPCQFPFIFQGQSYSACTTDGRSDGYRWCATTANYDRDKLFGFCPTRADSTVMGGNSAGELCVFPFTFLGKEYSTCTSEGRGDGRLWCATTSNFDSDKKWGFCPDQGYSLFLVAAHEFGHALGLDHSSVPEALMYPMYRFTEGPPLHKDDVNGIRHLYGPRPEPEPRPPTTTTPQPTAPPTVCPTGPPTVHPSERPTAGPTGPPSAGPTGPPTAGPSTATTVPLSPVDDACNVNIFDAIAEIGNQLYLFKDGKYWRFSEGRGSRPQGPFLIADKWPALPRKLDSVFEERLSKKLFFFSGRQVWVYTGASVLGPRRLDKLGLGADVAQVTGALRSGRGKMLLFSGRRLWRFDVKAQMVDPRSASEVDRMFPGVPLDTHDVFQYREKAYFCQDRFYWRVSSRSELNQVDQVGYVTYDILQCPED

[4] = molecular target: T2, gelatinase B from neutrophils (Homo sapiens, UniProt P14780); assay: gelatinase (inhibitor) microtiter plate assay with biotinylated gelatin; format: biochemical; parameters: endogenous in cells; host or cells: human neutrophils stimulated with lipopolysaccharide; conditioned medium; details: qualitative statements
T2 sequence (P14780 94-707): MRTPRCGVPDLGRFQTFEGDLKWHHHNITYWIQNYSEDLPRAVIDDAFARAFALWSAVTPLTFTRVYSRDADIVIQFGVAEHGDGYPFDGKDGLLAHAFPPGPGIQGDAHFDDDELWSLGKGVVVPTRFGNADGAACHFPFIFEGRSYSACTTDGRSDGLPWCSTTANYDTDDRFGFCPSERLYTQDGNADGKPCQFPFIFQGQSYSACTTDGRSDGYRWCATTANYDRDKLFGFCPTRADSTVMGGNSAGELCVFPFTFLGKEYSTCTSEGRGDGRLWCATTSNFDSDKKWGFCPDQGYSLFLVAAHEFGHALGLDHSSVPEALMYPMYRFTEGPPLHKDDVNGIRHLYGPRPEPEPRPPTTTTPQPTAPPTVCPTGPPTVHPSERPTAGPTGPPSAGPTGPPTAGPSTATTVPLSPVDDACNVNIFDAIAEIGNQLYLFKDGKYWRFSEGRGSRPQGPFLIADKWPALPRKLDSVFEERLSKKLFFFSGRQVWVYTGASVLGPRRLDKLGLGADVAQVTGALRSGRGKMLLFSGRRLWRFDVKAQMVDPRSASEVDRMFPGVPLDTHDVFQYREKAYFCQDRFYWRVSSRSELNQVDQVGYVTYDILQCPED
Protocol: The measurement of gelatinase activity was based on the detection of non-degraded biotinylated gelatin with a streptavidin-peroxidase conjugate. This test is based on the biotin-avidin method described by Sorbi et al. (25) but modified to a one plate assay (schematically represented in Fig. 1.). Gelatin (1mg/ml) was dissolved in 0.1 M sodium bicarbonate pH 8.3 by heating to 40°C. Biotin-N-hydroxysuccinimide ester was dissolved in dimethylsulfoxide (Me2SO) and was added to the gelatin in a 15-fold molar excess. The mixture was allowed to react overnight at 4°C and the biotinylated gelatin was then dialyzed against phosphate buffered saline (PBS). Neutrophil granulocyte (Neu) medium was collected from human neutrophils after stimulation with lipopolysaccharide (1µg/ml) overnight at 37°C in Minimal Essential Medium. Cells were removed by 10 min centrifugation at 1000 g. Purified gelatinase was obtained by one-step affinity chromatography of neutrophil medium on a gelatin-sepharose column as described (8).
Modified flat bottom 96-well ELISA plates were coated overnight with 0.5 µg/ml avidin in distilled water. The plates were then blocked with 0.3% bovine serum albumin (BSA, Sigma) in PBS for 1 hour at 37°C. Biotinylated gelatin was diluted to 50 µg/ml and 100µl was added to the avidin-coated wells. After incubation for one hour at 20°C, the plate was rinsed with PBS. Medium containing the secreted gelatinases from human neutrophils (dilution range 1/3-1/3^11) and the inhibitors were diluted in incubation buffer (50 mM Tris-HCl pH 7.5, 10 mM CaCl2, 0.02% (W/V) NaN3, 1% (V/V) Triton X-100) and 100 µl of each were mixed. 190 µl of the mixture was added to the gelatin-coated plates and allowed to digest the gelatin overnight at 37°C. The plates were then washed with PBS and each well was incubated with 100 µl peroxidase-conjugated-streptavidin at a 1:2000 dilution for 1 hour at 37°C. After rinsing the plate, the ABTS substrate was added (0.5 mg/ml solution containing 0.1 M citric acid, 0.2 M Na2HPO4, pH 4.3, 0.07 µl/ml 30% H2O2) and the optical density was read at 405 nm after 10 min. incubation at room temperature. Additional information on published test systems used here for comparison.
Gelatin is biotinylated and bound to avidin-coated microtiter plates. By addition of gelatinases the number of free biotin groups decreases and proportionally less streptavidin-peroxidase is bound to the residual substrate. Bound streptavidin-peroxidase activity is measured spectrophotometrically by reaction of peroxide with ABTS. Inhibition of gelatinase is obtained by the addition of inhibitor to a known amount of gelatinase prior to application to the plates. The peroxidase activity increases proportionally with the inhibitory activity.
Plates were first coated with 10µg/ml avidin and 50µg/ml biotinylated gelatin (theoretically saturating the avidin binding sites). As the sensitivity of the assay is dependent on the detection of the minimal amount of degraded biotinylated gelatin, we investigated wether decreasing the amount of biotin-gelatin (50 µg/ml-23 ng/ml) bound to the avidin-coated (10µg/ml) plate increased the sensitivity of the assay. […] Thus it was verified whether a decrease in the avidin coating could make the assay more sensitive (Fig. 2). […] In all further examples plates were coated with 0.5 µg/ml avidin and 50 µg/ml gelatin-biotin.
The titration curves of gelatinase inhibition were always related to a blanc curve and this for enzyme concentrations within the slope of the curve (vertical dotted lines Fig. 3). The decrease in enzyme activity to which the inhibitor-incubated sample corresponded was defined as the inhibition factor (IF).

u-PA = u-PA (Homo sapiens, UniProt P00749); assay: ID50 on homogeneous enzyme; format: biochemical
Gelatinase B [5] = molecular target: T1, Gelatinase B; assay: zymography of cerebrospinal fluid of MS / optic neuritis patients with inhibitor; format: biochemical; parameters: from tissue; host or cells: cerebrospinal fluid of patients with multiple sclerosis or optic neuritis; details: CSF of MS patients, increasing concentrations
Protocol: (§1) Quantitative zymography was performed as described (7,8). Briefly, 40 µl of loading buffer was added to 40 µl of each sample and applied on 7.5% polyacrylamide gels which had been co-polymerised with 0.1% (w/v) gelatin. Stacking gels contained 5% polyacrylamide. The gels were run at 4°C for 16h at 90V. The gels were then incubated in washing buffer (50 mM Tris-HCl pH 7.5, 10mM CaCl2, O.O2% (W/V) NaN3, 2.5% (v/v) Triton X-100) at room temperature, 2x20 min to remove sodium dodecyl sulfate and overnight in developing buffer (50 mM Tris-HCl pH 7.5, 10mM CaCl2, O.O2% (w/v) NaN3, 1% (v/v) Triton X-100) at 37°C. […] The sites of gelatinase activity appeared as unstained bands on a blue background and were quantified by computerised image analysis through scanning densitometry with a PDI scanner (Pharmacia, Belgium) and the PDI software package. […]
(§2) Similar results were obtained when pure preparations of gelatinase B were tested or when gelatinase B was measured in the presence of D-penicillamine in body fluids or cell supernatants.
(§3) Figure 13. […] Gelatinase A (---) and B(_) activities in the CSF were measured by zymography in the absence or the presence of increasing concentrations of D-penicillamine. The scanning indices for each patient are calculated at the residual activity in the presence of inhibitor versus the activity without inhibitor. […]
Target sequence in this assay (P14780 94-707): as above

[6] = molecular target: T2, gelatinase B from neutrophils; assay: zymography inhibition assay, inhibitor in developing buffer; format: biochemical; parameters: The 92 kDa neutrophil gelatinase is indicated with an arrowhead; endogenous in cells; host or cells: human neutrophils; purified from conditioned medium on gelatin-Sepharose; details: qualitative statements
Protocol: Quantitative zymography was performed as described (7,8). Briefly, 40 µl of loading buffer was added to 40 µl of each sample and applied on 7.5% polyacrylamide gels which had been co-polymerised with 0.1% (w/v) gelatin. Stacking gels contained 5% polyacrylamide. The gels were run at 4°C for 16h at 90V. The gels were then incubated in washing buffer (50 mM Tris-HCl pH 7.5, 10mM CaCl2, O.O2% (W/V) NaN3, 2.5% (v/v) Triton X-100) at room temperature, 2x20 min to remove sodium dodecyl sulfate and overnight in developing buffer (50 mM Tris-HCl pH 7.5, 10mM CaCl2, O.O2% (w/v) NaN3, 1% (v/v) Triton X-100) at 37°C. The gels were then stained in Coomassie brilliant blue R-250 and destained in methanol/acetic acid. The sites of gelatinase activity appeared as unstained bands on a blue background and were quantified by computerised image analysis through scanning densitometry with a PDI scanner (Pharmacia, Belgium) and the PDI software package. For inhibition experiments, the inhibitors were dissolved in the developing buffer at the appropriate concentration. […] The enzyme activity was developed by staining of the substrate with Coomassie blue and quantification of the substrate digestion by scanning densitometry. […] The enzyme activity was developed by staining of the substrate with Coomassie blue and quantification of the substrate digestion by scanning densitometry. […]

t-PA = t-PA (Homo sapiens, UniProt P00750); assay: ID50 on homogeneous enzyme; format: biochemical
t-PA, sequence (P00750 36-562, species assumed): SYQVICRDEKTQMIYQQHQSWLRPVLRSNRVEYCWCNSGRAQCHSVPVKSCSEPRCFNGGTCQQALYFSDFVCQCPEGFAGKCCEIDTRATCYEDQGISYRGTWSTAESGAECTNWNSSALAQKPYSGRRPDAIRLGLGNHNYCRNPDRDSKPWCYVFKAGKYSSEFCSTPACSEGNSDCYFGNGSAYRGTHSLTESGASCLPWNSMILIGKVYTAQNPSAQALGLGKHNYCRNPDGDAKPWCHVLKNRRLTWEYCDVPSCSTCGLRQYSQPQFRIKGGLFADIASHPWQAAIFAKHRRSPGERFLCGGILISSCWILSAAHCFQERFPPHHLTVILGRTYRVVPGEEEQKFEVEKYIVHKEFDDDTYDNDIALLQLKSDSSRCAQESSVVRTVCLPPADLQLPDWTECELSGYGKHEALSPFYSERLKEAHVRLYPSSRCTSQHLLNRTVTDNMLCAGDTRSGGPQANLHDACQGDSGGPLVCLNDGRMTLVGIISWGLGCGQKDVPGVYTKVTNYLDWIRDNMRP

Gelatinase A = molecular target: T3, Gelatinase A (Homo sapiens, UniProt P08253); assay: zymography of cerebrospinal fluid of MS / optic neuritis patients with inhibitor; format: biochemical; details: CSF of MS patients, increasing concentrations
T3 construct: from tissue; host or cells: cerebrospinal fluid of patients with multiple sclerosis or optic neuritis
T3 sequence (P08253 110-660): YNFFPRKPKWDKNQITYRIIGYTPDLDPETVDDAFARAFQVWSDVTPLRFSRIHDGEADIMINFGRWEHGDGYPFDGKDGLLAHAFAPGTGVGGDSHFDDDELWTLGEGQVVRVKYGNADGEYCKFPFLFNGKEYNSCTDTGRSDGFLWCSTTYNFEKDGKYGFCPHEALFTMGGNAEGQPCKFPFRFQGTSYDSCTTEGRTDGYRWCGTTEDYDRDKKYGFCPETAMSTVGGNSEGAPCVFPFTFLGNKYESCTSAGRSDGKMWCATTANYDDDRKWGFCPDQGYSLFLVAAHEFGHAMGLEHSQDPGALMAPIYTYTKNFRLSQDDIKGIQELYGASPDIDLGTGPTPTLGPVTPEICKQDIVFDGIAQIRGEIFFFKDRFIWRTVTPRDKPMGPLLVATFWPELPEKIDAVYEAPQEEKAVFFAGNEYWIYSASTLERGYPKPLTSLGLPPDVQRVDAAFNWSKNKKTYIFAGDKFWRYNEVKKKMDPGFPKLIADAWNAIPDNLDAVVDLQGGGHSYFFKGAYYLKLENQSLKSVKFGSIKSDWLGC
Protocol: as §1, §2, §3

CC(C)(S)[C@@H](N)C(=O)O [D-penicillamine]
development of disease symptoms in acute EAE [1]: complete blockage; also recorded: inhibits in a dose-dependent way the development of disease symptoms | spontaneous and induced levels of gelatinase B mRNA [2]: remained constant | spontaneous and induced levels of gelatinase B protein [2]: remained constant | disease recurrencies in chronic relapsing EAE (chronic relapsing EAE): abrogated the exacerbations; also recorded: abrogated the disease recurrencies | pIC50 (Gelatinase B [3]): 4.70 | gelatinase B inhibitory activity in the plate assay (in words) [4]: inhibitor of gelatinase B | pIC50 (u-PA): 4.03 | inhibition of Gelatinase B in cerebrospinal fluid (in words) (Gelatinase B [5]): inhibited in a dose-dependent way | inhibition of gelatinase B on zymography (in words) [6]: inhibitor of gelatinase B | pIC50 (t-PA): 3.92 | inhibition of Gelatinase A in cerebrospinal fluid (in words) (Gelatinase A): inhibited in a dose-dependent way
